Experimental data taken from patent US8852654B2 (priority 2011, dated 2014).

Columns and labels:
[1] = Double blind randomized clinical assay in women with low urinary tract infection treated with nitrofurantoin; assay type: in vivo, human
Excerpt: Patients were ambulatory in the Urology Polyclinical of the Clinical Hospital of the University of Chile (HCUCH). Those that fulfilled the inclusion and exclusion criteria signed an informed consent to participate in the study. Patients were distributed randomly in the two following groups:
During the treatment, under medical and nursery checkup registers of adverse reactions, hemogram, biochemical profile, urocultive and determination of plasma antioxidant capacity were made.

[2] = cited from earlier work

O=C1CN(/N=C/c2ccc([N+](=O)[O-])o2)C(=O)N1 [nitrofurantoin, N-(5-nitro-2-furfuriliden)-1-aminohidantoin]
Biochemical profile values compared with reference values ([1]; human, in vivo): not statistically different from reference values | Hemogram values compared with reference values ([1]; human, in vivo): not statistically different from reference values | Patients passed away because of the gastrointestinal adverse reactions ([1]; received only nitrofurantoin, 100 mg every 12 hours, 15 patients per group): 2 patients | Absorption ([2]; after oral administration): almost completely absorbed | Maximum plasma concentrations ([2]; oral): about 1 mg/L | Plasma half-life ([2]; oral, prolonged in renal insufficiency): 20 to 30 min
